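How tested: cells in 96-well plates exposed to compound for 48 hours at five concentrations. At the GI50, growth is halved. At the TGI there is no net growth.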
Assays:
Test in all cases: NCI anticancer screen, dose series, 48 h
NCI-H522 lung = test system: NCI-H522 lung
OVCAR-5 ovarian = test system: OVCAR-5 ovarian
OVCAR-3 ovarian = test system: OVCAR-3 ovarian
TK-10 renal = test system: TK-10 renal
UO-31 renal = test system: UO-31 renal
KM12 colon = test system: KM12 colon
K-562 leukemia = test system: K-562 leukemia
NCI-H226 lung = test system: NCI-H226 lung
CAKI-1 renal = test system: CAKI-1 renal
HS 578T breast = test system: HS 578T breast
IGROV1 ovarian = test system: IGROV1 ovarian
RXF 393 renal = test system: RXF 393 renal
SN12C renal = test system: SN12C renal
NCI-H23 lung = test system: NCI-H23 lung
MOLT-4 leukemia = test system: MOLT-4 leukemia
A549 NSCLC = test system: A549 NSCLC
OVCAR-8 ovarian = test system: OVCAR-8 ovarian
ACHN renal = test system: ACHN renal
HL-60(TB) leukemia = test system: HL-60(TB) leukemia
HCT-15 colon = test system: HCT-15 colon
MDA-MB-435 = test system: MDA-MB-435
SF-295 CNS = test system: SF-295 CNS
HOP-62 NSCLC = test system: HOP-62 NSCLC
BT-549 breast = test system: BT-549 breast
MALME-3M melanoma = test system: MALME-3M melanoma
HT29 colon = test system: HT29 colon
A498 renal = test system: A498 renal
SK-MEL-5 melanoma = test system: SK-MEL-5 melanoma
NCI-H460 lung = test system: NCI-H460 lung
SNB-75 CNS = test system: SNB-75 CNS
CCRF-CEM leukemia = test system: CCRF-CEM leukemia
T-47D breast = test system: T-47D breast
UACC-62 melanoma = test system: UACC-62 melanoma
U251 CNS = test system: U251 CNS
HCT-116 colon = test system: HCT-116 colon
LOX IMVI melanoma = test system: LOX IMVI melanoma
SK-MEL-28 melanoma = test system: SK-MEL-28 melanoma
MDA-MB-231 breast = test system: MDA-MB-231 breast
SR leukemia = test system: SR leukemia
HCC-2998 colon = test system: HCC-2998 colon
SF-268 CNS = test system: SF-268 CNS
OVCAR-4 ovarian = test system: OVCAR-4 ovarian
SNB-19 CNS = test system: SNB-19 CNS
M14 melanoma = test system: M14 melanoma
786-0 renal = test system: 786-0 renal
COLO 205 colon = test system: COLO 205 colon
UACC-257 melanoma = test system: UACC-257 melanoma
HOP-92 NSCLC = test system: HOP-92 NSCLC
MCF7 breast = test system: MCF7 breast
EKVX NSCLC = test system: EKVX NSCLC
DU-145 prostate = test system: DU-145 prostate
NCI/ADR-RES ovarian = test system: NCI/ADR-RES ovarian
SF-539 CNS = test system: SF-539 CNS
PC-3 prostate = test system: PC-3 prostate
RPMI-8226 leukemia = test system: RPMI-8226 leukemia
SW-620 colon = test system: SW-620 colon
SK-OV-3 ovarian = test system: SK-OV-3 ovarian
SK-MEL-2 melanoma = test system: SK-MEL-2 melanoma

## O=Nc1c(-c2c(O)[nH]c3ncccc23)[nH]c2ccccc12
NCI-H522 lung
  GI50: > 53.6 µM
  TGI: > 100 µM
OVCAR-5 ovarian
  GI50: 96.9 µM
  TGI: > 100 µM
OVCAR-3 ovarian
  GI50: > 100 µM
  TGI: > 100 µM
TK-10 renal
  GI50: 5.52 µM
  TGI: > 100 µM
UO-31 renal
  GI50: 1.64 µM
  TGI: > 100 µM
KM12 colon
  GI50: 1.32 µM
  TGI: > 100 µM
K-562 leukemia
  TGI: > 100 µM
NCI-H226 lung
  GI50: 15.3 µM
  TGI: > 100 µM
CAKI-1 renal
  GI50: 1.9 µM
  TGI: > 100 µM
HS 578T breast
  GI50: 2.71 µM
  TGI: > 100 µM
IGROV1 ovarian
  GI50: 1.72 µM
  TGI: > 100 µM
RXF 393 renal
  GI50: > 100 µM
  TGI: > 100 µM
SN12C renal
  GI50: 5.86 µM
  TGI: > 100 µM
NCI-H23 lung
  GI50: > 100 µM
  TGI: > 100 µM
MOLT-4 leukemia
  GI50: 3.4 µM
  TGI: > 100 µM
A549 NSCLC
  GI50: 5.71 µM
  TGI: > 100 µM
OVCAR-8 ovarian
  GI50: > 100 µM
  TGI: > 100 µM
ACHN renal
  GI50: 2.58 µM
  TGI: > 100 µM
HL-60(TB) leukemia
  GI50: 7.58 µM
  TGI: > 100 µM
HCT-15 colon
  GI50: 3.92 µM
  TGI: > 100 µM
MDA-MB-435
  GI50: > 100 µM
  TGI: > 100 µM
SF-295 CNS
  GI50: > 100 µM
  TGI: > 100 µM
HOP-62 NSCLC
  GI50: > 100 µM
  TGI: > 100 µM
BT-549 breast
  GI50: 5.41 µM
  TGI: > 100 µM
MALME-3M melanoma
  GI50: 8.83 µM
  TGI: > 41.5 µM
HT29 colon
  GI50: > 94.2 µM
  TGI: > 100 µM
A498 renal
  GI50: 1.93 µM
  TGI: > 100 µM
SK-MEL-5 melanoma
  GI50: 15 µM
  TGI: > 100 µM
NCI-H460 lung
  GI50: 7.25 µM
  TGI: > 100 µM
SNB-75 CNS
  GI50: 2.56 µM
  TGI: > 100 µM
CCRF-CEM leukemia
  GI50: 5.07 µM
  TGI: > 100 µM
T-47D breast
  GI50: 2.99 µM
  TGI: > 100 µM
UACC-62 melanoma
  TGI: > 100 µM
U251 CNS
  GI50: > 100 µM
  TGI: > 100 µM
HCT-116 colon
  GI50: 6.12 µM
  TGI: > 100 µM
LOX IMVI melanoma
  GI50: 5.32 µM
  TGI: > 100 µM
SK-MEL-28 melanoma
  GI50: > 57.3 µM
  TGI: > 100 µM
MDA-MB-231 breast
  GI50: 16 µM
  TGI: > 100 µM
SR leukemia
  GI50: 0.274 µM
  TGI: > 100 µM
HCC-2998 colon
  GI50: > 24.4 µM
  TGI: > 100 µM
SF-268 CNS
  GI50: > 100 µM
  TGI: > 100 µM
OVCAR-4 ovarian
  GI50: 9.1 µM
  TGI: > 100 µM
SNB-19 CNS
  GI50: > 100 µM
  TGI: > 100 µM
M14 melanoma
  GI50: 10.8 µM
  TGI: > 100 µM
786-0 renal
  GI50: 21.8 µM
  TGI: > 100 µM
COLO 205 colon
  GI50: 28.4 µM
  TGI: > 100 µM
UACC-257 melanoma
  GI50: > 100 µM
  TGI: > 100 µM
HOP-92 NSCLC
  TGI: > 100 µM
MCF7 breast
  GI50: 18.7 µM
  TGI: > 100 µM
EKVX NSCLC
  GI50: 1.32 µM
  TGI: > 100 µM
DU-145 prostate
  GI50: > 23.9 µM
  TGI: > 100 µM
NCI/ADR-RES ovarian
  GI50: > 100 µM
  TGI: > 100 µM
SF-539 CNS
  GI50: > 100 µM
  TGI: > 100 µM
PC-3 prostate
  GI50: > 26.1 µM
  TGI: > 100 µM
RPMI-8226 leukemia
  TGI: > 79 µM
SW-620 colon
  GI50: 11.3 µM
  TGI: > 100 µM

## COc1ccc(/C=C(\C)[N+](=O)[O-])cc1OC
NCI-H522 lung
  GI50: 1.34 µM
  TGI: 2.94 µM
OVCAR-5 ovarian
  GI50: 1.73 µM
  TGI: 3.31 µM
OVCAR-3 ovarian
  GI50: 1.87 µM
  TGI: 3.29 µM
TK-10 renal
  GI50: 1.55 µM
  TGI: 3.12 µM
UO-31 renal
  GI50: 1.68 µM
  TGI: 3.2 µM
KM12 colon
  GI50: 4.49 µM
  TGI: 16.4 µM
K-562 leukemia
  GI50: 2.17 µM
  TGI: > 100 µM
NCI-H226 lung
  GI50: 19.2 µM
  TGI: 40.5 µM
CAKI-1 renal
  GI50: 1.88 µM
  TGI: 3.89 µM
HS 578T breast
  GI50: 3.5 µM
  TGI: 15.9 µM
IGROV1 ovarian
  GI50: 2.16 µM
  TGI: 5.51 µM
RXF 393 renal
  GI50: 1.72 µM
  TGI: 3.18 µM
SN12C renal
  GI50: 2.72 µM
  TGI: 8.23 µM
NCI-H23 lung
  GI50: 2.6 µM
  TGI: 7.13 µM
MOLT-4 leukemia
  GI50: 3.86 µM
  TGI: 9.52 µM
A549 NSCLC
  GI50: 5.56 µM
  TGI: 19.3 µM
OVCAR-8 ovarian
  GI50: 2.61 µM
  TGI: 6.29 µM
ACHN renal
  GI50: 1.69 µM
  TGI: 3.16 µM
HCT-15 colon
  GI50: 1.4 µM
  TGI: 3.54 µM
MDA-MB-435
  GI50: 1.86 µM
  TGI: 3.94 µM
SF-295 CNS
  GI50: 17.8 µM
  TGI: 32.3 µM
HOP-62 NSCLC
  GI50: 5.08 µM
  TGI: 16.4 µM
SK-OV-3 ovarian
  GI50: 13.9 µM
  TGI: 27.4 µM
BT-549 breast
  GI50: 1.86 µM
  TGI: 3.36 µM
SK-MEL-2 melanoma
  GI50: 1.98 µM
  TGI: 3.83 µM
MALME-3M melanoma
  GI50: 1.4 µM
  TGI: 3.17 µM
HT29 colon
  GI50: 2.2 µM
  TGI: 4.43 µM
A498 renal
  GI50: 4.51 µM
  TGI: 18.5 µM
SK-MEL-5 melanoma
  GI50: 2.19 µM
  TGI: 5.11 µM
NCI-H460 lung
  GI50: 2.54 µM
  TGI: 6.56 µM
SNB-75 CNS
  GI50: 2.2 µM
  TGI: 12.2 µM
T-47D breast
  GI50: 1.88 µM
  TGI: 5.1 µM
UACC-62 melanoma
  GI50: 1.82 µM
  TGI: 3.87 µM
U251 CNS
  GI50: 4.39 µM
  TGI: 15.9 µM
HCT-116 colon
  GI50: 1.81 µM
  TGI: 3.46 µM
LOX IMVI melanoma
  GI50: 1.36 µM
  TGI: 2.97 µM
SK-MEL-28 melanoma
  GI50: 1.71 µM
  TGI: 3.44 µM
MDA-MB-231 breast
  GI50: 2.33 µM
  TGI: 6.21 µM
SR leukemia
  GI50: 2.04 µM
  TGI: > 100 µM
HCC-2998 colon
  GI50: 1.82 µM
  TGI: 3.29 µM
SF-268 CNS
  GI50: 2.26 µM
  TGI: 5.46 µM
OVCAR-4 ovarian
  GI50: 1.97 µM
  TGI: 4.91 µM
SNB-19 CNS
  GI50: 11.3 µM
  TGI: 23.6 µM
M14 melanoma
  GI50: 1.96 µM
  TGI: 3.95 µM
786-0 renal
  GI50: 1.93 µM
  TGI: 3.57 µM
COLO 205 colon
  GI50: 2.23 µM
  TGI: 4.46 µM
UACC-257 melanoma
  GI50: 1.88 µM
  TGI: 3.5 µM
HOP-92 NSCLC
  GI50: 2.01 µM
  TGI: 3.71 µM
MCF7 breast
  GI50: 1.35 µM
  TGI: 3.25 µM
DU-145 prostate
  GI50: 1.79 µM
  TGI: 3.22 µM
NCI/ADR-RES ovarian
  GI50: 3.55 µM
  TGI: 13.4 µM
SF-539 CNS
  GI50: 1.74 µM
  TGI: 3.17 µM
PC-3 prostate
  GI50: 2.75 µM
  TGI: 7.07 µM
RPMI-8226 leukemia
  GI50: 2.3 µM
  TGI: 5.59 µM
SW-620 colon
  GI50: 1.78 µM
  TGI: 3.8 µM

Source: PubChem BioAssay (NCI)
